In patent publication US11554113B2, “Methods for treating disorders or diseases associated with hyperlipidemia and hypercholesterolemia while minimizing side-effects” (The Trustees of the University of Pennsylvania, priority 2004, dated 2023):
pIC50: −log10 of the molar value. Where two headings read alike, the source gives them in different places.

Experiments:
[1] = molecular target: microsomal triglyceride transfer protein (MTP) (Homo sapiens, UniProt P55157); details: for mean percent change in apoB / mean percent change in non-HDL cholesterol / mean percent change in total cholesterol: 6 hoFH subjects
Description: This theory was applied in designing a study investigating the safety, tolerability and efficacy of BMS-201038 in patients with homozygous familial hypercholesterolemia (hoFH).
Subjects received once daily dosing of 4 doses of BMS-201038 (0.03, 0.1, 0.3 and 1.0 mg/kg) for 4 weeks at each dose. We chose an initial low dose (0.03 mg/kg) that while not expecting to be efficacious, would be a dose that would be expected to be safe and well tolerated (˜2.1 mg in the 70 kg person) The remaining three doses were chosen by calculating ½ log units of the previous dose.

[2] = tested on: apoB secretion; details: cell culture studies; read-out: IC50 for inhibition of apoB secretion; cited from earlier work
[3] = tested on: apoAI secretion; details: cell culture studies; read-out: IC50 for inhibition of apoAI secretion; cited from earlier work
[4] = rats, cited from earlier work
[5] = dogs, six-month toxicity study, doses 0-10 mg/kg; cited from earlier work
[6] = tested on: cholesterol levels; details: cited from earlier work
[7] = tested on: low density lipoprotein cholesterol (LDL-C); details: cited from earlier work
[8] = 25 mg per day for 4 weeks, primary hypercholesterolemia, some patients; cited from earlier work
[9] = tested on: LDL-C; details: cited from earlier work
[10] = tested on: cholesterol; details: in vivo; cited from earlier work
[11] = 0.3 mg/kg once daily for 4 weeks (second highest dose)
[12] = 1.0 mg/kg once daily for 4 weeks (highest dose)
[13] = dose of 10 mg/kg, rabbits that lack a functional LDL receptor

Sequence of microsomal triglyceride transfer protein (MTP) (P55157 19-894): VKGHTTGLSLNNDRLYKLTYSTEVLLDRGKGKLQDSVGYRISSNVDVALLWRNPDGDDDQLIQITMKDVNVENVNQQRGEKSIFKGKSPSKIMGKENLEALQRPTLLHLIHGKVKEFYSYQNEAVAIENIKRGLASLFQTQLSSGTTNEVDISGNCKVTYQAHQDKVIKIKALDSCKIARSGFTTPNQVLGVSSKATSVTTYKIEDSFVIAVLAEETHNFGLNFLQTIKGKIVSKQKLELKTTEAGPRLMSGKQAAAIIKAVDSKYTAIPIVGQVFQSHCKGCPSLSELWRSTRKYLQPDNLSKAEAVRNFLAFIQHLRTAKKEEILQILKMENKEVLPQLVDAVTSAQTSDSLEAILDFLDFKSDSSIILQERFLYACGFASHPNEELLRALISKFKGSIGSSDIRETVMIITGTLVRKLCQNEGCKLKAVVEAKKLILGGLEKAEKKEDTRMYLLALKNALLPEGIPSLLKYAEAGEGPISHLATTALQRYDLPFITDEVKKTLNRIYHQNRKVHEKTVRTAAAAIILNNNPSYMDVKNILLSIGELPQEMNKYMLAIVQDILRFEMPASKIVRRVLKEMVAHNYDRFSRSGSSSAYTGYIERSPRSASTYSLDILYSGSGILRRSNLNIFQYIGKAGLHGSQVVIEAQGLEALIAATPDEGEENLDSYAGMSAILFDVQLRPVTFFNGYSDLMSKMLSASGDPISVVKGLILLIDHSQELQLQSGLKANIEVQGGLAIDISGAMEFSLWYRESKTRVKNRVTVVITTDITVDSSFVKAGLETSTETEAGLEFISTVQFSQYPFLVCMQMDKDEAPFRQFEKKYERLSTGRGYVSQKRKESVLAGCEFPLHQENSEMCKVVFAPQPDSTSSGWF
Sequence of microsomal triglyceride transfer protein (MTP) (P07237 18-508 partner): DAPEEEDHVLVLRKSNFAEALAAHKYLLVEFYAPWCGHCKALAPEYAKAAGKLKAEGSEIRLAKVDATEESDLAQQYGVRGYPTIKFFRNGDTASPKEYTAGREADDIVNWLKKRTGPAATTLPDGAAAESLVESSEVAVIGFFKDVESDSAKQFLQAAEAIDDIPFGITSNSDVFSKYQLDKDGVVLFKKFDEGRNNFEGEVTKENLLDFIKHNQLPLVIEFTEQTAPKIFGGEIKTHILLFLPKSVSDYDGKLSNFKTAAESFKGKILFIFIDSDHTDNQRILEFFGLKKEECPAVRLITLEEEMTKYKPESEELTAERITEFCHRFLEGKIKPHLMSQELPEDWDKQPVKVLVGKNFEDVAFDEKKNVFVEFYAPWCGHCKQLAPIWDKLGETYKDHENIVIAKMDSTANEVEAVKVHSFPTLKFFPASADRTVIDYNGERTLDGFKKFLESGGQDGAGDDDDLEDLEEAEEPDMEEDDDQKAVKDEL

Q: With `O=C(NC1CCN(CCCCC2(C(=O)NCC(F)(F)F)c3ccccc3-c3ccccc32)CC1)c1ccccc1-c1ccc(C(F)(F)F)cc1` [BMS-201038, N-(2,2,2-Trifluorethyl)-9-[4-[4-[[[4′-(trifluoromethyl) [1,1′biphenyl]-2-Y1]carbonyl]amino]-1-piperidinyl]butyl]9H-fluorene-9-carboxamide, methanesulfonate] as the compound, how does the “mean percent change in apoB” value [1, 11] read?
A: Its value is −15±16%.

Q: And the “mean percent change in non-HDL cholesterol” value [1, 11]?
A: Its value is −31±9%.

Q: And the “mean percent change in total cholesterol” value [1, 11]?
A: The value was −30±9%.

Q: What about the “mean percent change in apoB” value [1, 12] of the same compound?
A: Its value is −55±13%.

Q: And the “mean percent change in non-HDL cholesterol” value [1, 12]?
A: Its value is −60±8.8%.

Q: And the “mean percent change in total cholesterol” value [1, 12]?
A: The value was −58±8.5%.

Q: And the “increase in hepatic fat by NMRS from baseline to 4 weeks on 1 mg/kg” value ([1]; human, in vivo, 4 weeks)?
A: The value was 3-37%.

Q: And the pIC50 [2]?
A: The pIC50 was 9.10.

Q: And the pIC50 [3]?
A: The pIC50 was 5.19.

Q: And the “doses associated with subacute inflammation and single-cell necrosis of hepatocytes and histiocytosis (phospholipidosis) in the lungs” value ([4]; six-month toxicity study, doses 0-20 mg/kg)?
A: Its value is ≥ 0.2 mg/kg.

Q: And the “hepatic accumulation of lipids at the end of a 1-month washout period” value [4]?
A: Its value is “reversed”.

Q: And the “subacute inflammation and single-cell necrosis of hepatocytes and histiocytosis (phospholipidosis) in the lungs” value [5]?
A: The value was “not in dogs”.

Q: What about the LDL cholesterol reduction ([6]; 10 mg/kg, animal study by Wetterau and colleagues) of the same compound?
A: Its LDL cholesterol reduction is “greater than 80%”.

Q: And the cholesterol levels [6, 13]?
A: The cholesterol levels was “essentially normalized”.

Q: What about the “plasma AST or ALT” value [6, 13] of the same compound?
A: The value was “no alteration”.

Q: What about the “ED50 value for lowering cholesterol” value ([6]; rabbits that lack a functional LDL receptor) of the same compound?
A: The value was 1.9 mg/kg.

Q: And the “reduction of low density lipoprotein cholesterol (LDL-C)” value ([7]; healthy volunteers with hypercholesterolemia)?
A: Its value is “up to 65%”.

Q: What about the “doses at which gastrointestinal side effects/steatorrhea, elevation of serum transaminases and hepatic fat accumulation were primarily observed” value ([7]; human clinical development) of the same compound?
A: The value was ≥ 25 mg/day.

Q: What about the “gastrointestinal (GI) symptoms (steatorrhea, abdominal cramping and distention)” value [8] of the same compound?
A: The value was “clinically significant”.

Q: With `O=C1[C@H](CC[C@H](O)c2ccc(F)cc2)[C@@H](c2ccc(O)cc2)N1c1ccc(F)cc1` [ezetimibe] as the compound, how does the “total reduction of LDL-C levels” value ([9]; ezetimibe 10 mg/day added to atorvastatin or simvastatin 80 mg/day, hoFH) read?
A: The value was 27%.

Q: And the “reduction of LDL cholesterol” value [10]?
A: Its value is “about 18%”.

Q: With `CC(C)c1c(C(=O)Nc2ccccc2)c(-c2ccccc2)c(-c2ccc(F)cc2)n1CC[C@@H](O)C[C@@H](O)CC(=O)O` [atorvastatin] as the compound, how does the “mean LDL-C reduction” value ([9]; genotype-confirmed hoFH, maximal dose of statins 80 mg/day) read?
A: The value was “about 5.5%”.
